In patent US20220251074A1, “HERBICIDAL AMIDES” (BASF SE, priority 2019, published 2022):

How the values were obtained:
ABUTH = assay: greenhouse post-emergence herbicidal test; type: in vivo, Abutilon theophrasti; settings: post-emergence method, application rate 500 g/ha, scale from 0 to 100
Description: (§1) The culture containers used were plastic flowerpots containing loamy sand with approximately 3.0% of humus as the substrate. The seeds of the test plants were sown separately for each species.
(§2) For the post-emergence treatment, the test plants were first grown to a height of 3 to 15 cm, depending on the plant habit, and only then treated with the active ingredients which had been suspended or emulsified in water. For this purpose, the test plants were either sown directly and grown in the same containers, or they were first grown separately as seedlings and transplanted into the test containers a few days prior to treatment.
(§3) Depending on the species, the plants were kept at 10-25° C. or 20-35° C., respectively. The test period extended over 2 to 4 weeks. During this time, the plants were tended, and their response to the individual treatments was evaluated.
(§4) Evaluation was carried out using a scale from 0 to 100. 100 means no emergence of the plants, or complete destruction of at least the aerial moieties, and 0 means no damage, or normal course of growth. A good herbicidal activity is given at values of at least 80 and a very good herbicidal activity is given at values of at least 90.
(§5) The plants used in the greenhouse experiments were of the following species: […]

ECHCG = assay: greenhouse post-emergence herbicidal test; type: in vivo, Echinocloa crus-galli; settings: post-emergence method, application rate 500 g/ha, scale from 0 to 100
Description: as §1, §2, §3, §4, §5

AMARE [1] = assay: greenhouse post-emergence herbicidal test; type: in vivo, Amaranthus retroflexus; settings: post-emergence method, application rate 500 g/ha, scale from 0 to 100
Description: as §1, §2, §3, §4, §5

SETVI = assay: greenhouse post-emergence herbicidal test; type: in vivo, Setaria viridis; settings: application rate 500 g/ha, scale from 0 to 100; for damages, unwanted plants SETVI: post-emergence application, greenhouse; for herbicidal activity against SETVI: post-emergence method
Description: as §1, §2, §3, §4, §5

ALOMY = assay: greenhouse post-emergence herbicidal test; type: in vivo, Alopercurus myosuroides; settings: post-emergence application, application rate 500 g/ha, scale from 0 to 100
Description: as §1, §2, §3, §4, §5

CHEAL = assay: greenhouse post-emergence herbicidal test; type: in vivo, Chenopodium album; settings: post-emergence application, application rate 8 g/ha, scale from 0 to 100
Description: as §1, §2, §3, §4, §5

AVEFA = assay: greenhouse post-emergence herbicidal test; type: in vivo, Avena fatua; settings: application rate 500 g/ha, scale from 0 to 100; for damages, unwanted plants AVEFA: post-emergence application, greenhouse
Description: as §1, §2, §3, §4, §5

SEBEX = assay: greenhouse post-emergence herbicidal test; type: in vivo, Sesbania exaltata; settings: post-emergence application, application rate 8 g/ha, scale from 0 to 100
Description: as §1, §2, §3, §4, §5

RAPRA = assay: greenhouse post-emergence herbicidal test; type: in vivo, Raphanus raphanistrum; settings: post-emergence application, application rate 8 g/ha, scale from 0 to 100
Description: as §1, §2, §3, §4, §5

SETFA = assay: greenhouse pre-emergence herbicidal test; type: in vivo, Setaria faberi; settings: pre-emergence method, application rate 500 g/ha, scale from 0 to 100
Description: as §1
(§6) For the pre-emergence treatment, the active ingredients, which had been suspended or emulsified in water, were applied directly after sowing by means of finely distributing nozzles. The containers were irrigated gently to promote germination and growth and subsequently covered with transparent plastic hoods until the plants had rooted. This cover caused uniform germination of the test plants, unless this had been impaired by the active ingredients.
as §3, §4, §5

AMARE [2] = assay: greenhouse pre-emergence herbicidal test; type: in vivo, Amaranthus retroflexus; settings: pre-emergence method, application rate 500 g/ha, scale from 0 to 100
Description: as §1, §6, §3, §4, §5

## CCOC1OC2C(CC3OC3C(C)C(C)O)COC(CC(C)=CC(=O)NCC(F)(F)F)C2O1 (mixture of isomers) [compound 20]
ABUTH
  herbicidal activity against ABUTH: very good herbicidal activity (a very good herbicidal activity is given at values of at least 90)
ECHCG
  herbicidal activity against ECHCG: very good herbicidal activity (a very good herbicidal activity is given at values of at least 90)
AMARE [1]
  herbicidal activity against AMARE: very good herbicidal activity (a very good herbicidal activity is given at values of at least 90)

## C/C(=C\C(=O)NCCO)C[C@@H]1OC[C@H](C[C@@H]2O[C@H]2[C@@H](C)[C@H](C)O)[C@@H](O)[C@H]1O [cmpd 77 (WO 93/19599), reference compound]
SETVI
  damages, unwanted plants SETVI: 85
ALOMY
  damages, unwanted plants ALOMY: 70
CHEAL
  damages, unwanted plants CHEAL: 75
AVEFA
  damages, unwanted plants AVEFA: 50
SEBEX
  damages, unwanted plants SEBEX: 65
RAPRA
  damages, unwanted plants RAPRA: 85

## C/C(=C\C(=O)NCCF)C[C@@H]1OC[C@H](C[C@@H]2O[C@H]2[C@@H](C)[C@H](C)O)[C@@H](O)[C@H]1O [compound 1]
SETVI
  damages, unwanted plants SETVI: 100
ALOMY
  damages, unwanted plants ALOMY: 100
CHEAL
  damages, unwanted plants CHEAL: 100
RAPRA
  damages, unwanted plants RAPRA: 100

## C/C(=C\C(=O)NCC(F)(F)C(F)(F)C(F)(F)F)C[C@@H]1OC[C@H](C[C@@H]2O[C@H]2[C@@H](C)[C@H](C)O)[C@@H](O)[C@H]1O [compound 9]
SETVI
  herbicidal activity against SETVI: very good herbicidal activity (a very good herbicidal activity is given at values of at least 90)
ECHCG
  herbicidal activity against ECHCG: good herbicidal activity (A good herbicidal activity is given at values of at least 80)
AMARE [1]
  herbicidal activity against AMARE: very good herbicidal activity (a very good herbicidal activity is given at values of at least 90)

## CC(=CC(=O)NCC(F)(F)C(F)(F)C(F)(F)F)CC1OCC(CC2OC2C(C)C(C)O)C2OC(C)(C)OC12 (stereo not shown) [compound 19]
AMARE [1]
  herbicidal activity against AMARE: very good herbicidal activity (a very good herbicidal activity is given at values of at least 90)

## C#CCNC(=O)/C=C(\C)C[C@@H]1OC[C@H](C[C@@H]2O[C@H]2[C@@H](C)[C@H](C)O)[C@@H](O)[C@H]1O [compound 26, (E)-4-[(2S,3R,4R,5S)-3,4-dihydroxy-5-[[(2S,3S)-3-[(1S,2S)-2-hydroxy-1-methyl-propyl]oxiran-2-yl]methyl]tetrahydropyran-2-yl]-3-methyl-N-prop-2-ynyl-but-2-enamide]
SETVI
  damages, unwanted plants SETVI: 100
ALOMY
  damages, unwanted plants ALOMY: 95
CHEAL
  damages, unwanted plants CHEAL: 100
AVEFA
  damages, unwanted plants AVEFA: 98
SEBEX
  damages, unwanted plants SEBEX: 100
RAPRA
  damages, unwanted plants RAPRA: 100

## C/C(=C\C(=O)NCC#CC(C)(C)C)C[C@@H]1OC[C@H](C[C@@H]2O[C@H]2[C@@H](C)[C@H](C)O)[C@@H](O)[C@H]1O [compound 29]
SETFA
  herbicidal activity against SETFA: good herbicidal activity (A good herbicidal activity is given at values of at least 80)

## C#CCNC(=O)C=C(C)CC1OCC(CC2OC2C(C)C(C)O)C2OC(OCC)OC12 (stereo not shown) [compound 33]
AMARE [2]
  herbicidal activity against AMARE: good herbicidal activity (A good herbicidal activity is given at values of at least 80)

## C/C(=C\C(=O)N1CCSC1=O)C[C@@H]1OC[C@H](C[C@@H]2O[C@H]2[C@@H](C)[C@H](C)O)[C@@H](O)[C@H]1O [compound 37]
SETVI
  herbicidal activity against SETVI: very good herbicidal activity (a very good herbicidal activity is given at values of at least 90)
ABUTH
  herbicidal activity against ABUTH: very good herbicidal activity (a very good herbicidal activity is given at values of at least 90)
ECHCG
  herbicidal activity against ECHCG: good herbicidal activity (A good herbicidal activity is given at values of at least 80)
AMARE [1]
  herbicidal activity against AMARE: good herbicidal activity (A good herbicidal activity is given at values of at least 80)

## CC(=CC(=O)N1CCSC1=O)CC1OCC(CC2OC2C(C)C(C)O)C2OC(C)(C)OC12 (stereo not shown) [compound 39]
SETVI
  herbicidal activity against SETVI: very good herbicidal activity (a very good herbicidal activity is given at values of at least 90)
ABUTH
  herbicidal activity against ABUTH: very good herbicidal activity (a very good herbicidal activity is given at values of at least 90)

## CC(=O)[C@H](C)[C@@H]1O[C@H]1C[C@H]1CO[C@@H](C/C(C)=C/C(=O)NCC(F)(F)F)[C@H](O)[C@@H]1O [compound 43]
SETVI
  herbicidal activity against SETVI: very good herbicidal activity (a very good herbicidal activity is given at values of at least 90)
ABUTH
  herbicidal activity against ABUTH: very good herbicidal activity (a very good herbicidal activity is given at values of at least 90)
AVEFA; post-emergence method
  herbicidal activity against AVEFA: very good herbicidal activity (a very good herbicidal activity is given at values of at least 90)
